US20100298166A1, “CELL POPULATIONS FOR POLYPEPTIDE ANALYSIS AND USES OF SAME” (priority 2008, published 2010)
Where two headings read alike, the source gives them in different places. Numbered stars: 1 amine (or outer) side, 2 acyl side, 3 side chain; on linkers, the order of the positions; unused ones are H or OH. Bridge positions count the residues as written; N and C are the ends. Square brackets hold non-standard residues; d marks the D form. Peptide text beside a SMILES is read from it. I, II: the chains in the order shown. Actinocin(9to1) = Cc1c2oc3c(C)ccc(C(=O)[*:1])c3nc-2c(C(=O)[*:2])c(N)c1=O; NMeV = CN[C@H](C(=O)O)C(C)C; Sar = CNCC(=O)O

Key:
Assay type in all cases: cell-based, human
[1] = test system: nucleolar proteins; assay: Quantitation of nucleolar translocations of tagged proteins; conditions: 1 μg/ml
Method: (§1) Drug Materials: Camptothecin (CPT; C9911 Sigma), was dissolved in DMSO (hybri-max, D2650 Sigma) to achieve a stock solution of 10 mM. In each experiment, drug was diluted to 10 μM in a transparent growth medium (RPMI, X PenStrep, 10% FCS, w/o riboflavin, w/o phenol red, Bet Haemek). Growth medium (2 ml) was replaced by the diluted drug (2 ml) under the microscope. The same procedure was carried out for the following drugs: Etoposide (E1383 Sigma), diluted to 33.3 μM and for Cisplatinum (P4394 Sigma) diluted to 40 μM. The stock solution for ActD (A1410 Sigma) was 1 mg/ml and was diluted to 1 μg/ml.
Then, for each of the selected clones, the present inventors calculated the ratio of fluorescence intensity between the top and bottom ten percent pixels in individual nuclei and averaged over the population. Clones with a max/min change of over 20 percent in this average during the experiment were inspected manually to verify the source of change in pixel intensity distribution and were classified as clones showing nucleolar translocation.
Finally, to quantify the extent and direction (nucleoli to nucleoplasm or vise versa) of the translocation, the present inventors calculated the ratio between mean fluorescence intensity of nucleoli vs. nucleoplasm (Rncll/nuc) at the two time points were the max/min ratio was maximized and minimized. […]

[2] = test system: H1299 non-small cell lung carcinoma cell line; assay: Time-lapse microscopy of cell death, motility and growth arrest after drug addition; conditions: CPT 10 uM
Method: (§2) Long period time-lapse microscopy: Time-lapse movies were obtained (at 20× magnification) as described by Sigal et al. (Sigal, Milo et al. 2006, supra) with an automated, incubated (including humidity and CO2 control) Leica DMIRE2 inverted fluorescence microscope and an ORCA ER cooled CCD camera (Hamamatsu Photonics). The system was controlled by ImagePro5 Plus (Media Cybernetics) software which integrated time-lapse acquisition, stage movement, and software based auto-focus. During the experiment, cells were grown and visualized in 12-well coverslip bottom plates (MatTek) coated with […] fibronectin (Sigma). For each well time lapse movies were obtained at four fields of view. Each movie was taken at a time resolution of 20 minutes and was filmed for at least three days (over 200 time points). Each time point included three images—phase contrast, red and yellow fluorescence.
Drug Materials: Camptothecin (CPT; C9911 Sigma), was dissolved in DMSO (hybri-max, D2650 Sigma) to achieve a stock solution of 10 mM. In each experiment, drug was diluted to 10 μM in a transparent growth medium (RPMI, X PenStrep, 10% FCS, w/o riboflavin, w/o phenol red, Bet Haemek). Growth medium (2 ml) was replaced by the diluted drug (2 ml) under the microscope. […]

[3] = test system: TOP1; conditions: for effects on TOP1 (nucleolar exit, degradation, cytoplasmic accumulation): other DNA damaging drugs
Method: as §2, §1
Image analysis of time lapse movies: A custom written image analysis tool was used developed using the Matlab image processing toolbox environment (Mathworks, Natick, Mass.). The main steps include; image correction, segmentation, tracking of the cells and automated identification of cell phenotypes (mitosis and cell death). Image background correction (flat field correction and background subtraction) was carried out as previously described (Sigal, Milo et al. 2006, supra). […] The main steps of the segmentation process are: 1) Differentiation between cells and background by global image threshold using Otsu's method (Otsu 1979, IEEE Transactions on Systems, Man, and Cybernetics 9(1): 62-66); 2) Segmentation of neighboring cells by applying the seeded watershed segmentation algorithm. Seeds were obtained by smoothening the red intensity image and usage of bright nuclei as cell seeds (by identifying local maxima)—one seed per cell; 3) Nuclei segmentation following cell segmentation; each cell was independently stretched between zero and one and a fixed threshold was used to differentiate between the cytoplasm and the nuclei; 4) Tracking of cells was performed by analyzing the movie from end to start and linking each segmented cell to the cell in the previous image with the closest centroid; 5) The automated cell death identification algorithm utilizes the morphological changes correlated with dying cells: rounding followed by blebbing and an explosion of the outer membrane or its collapse. An artificial neural network (ANN) algorithm was constructed that could identify each one of these morphological patters similar to the method previously described in (Eden 2005, IEEE, Transactions on Medical Imaging 24: 1011-1024). Briefly, two sets of images were constructed: The first contained 400 cell images in different stages of cell death and the second contained 400 live cell images. For each image, a collection of high-level image features was computed. […] This process transforms each image into a multi dimensional vector of features.

[4] = test system: TOP1; assay: Immunoblots with anti-TOP1 and anti-GFP after CPT
Method: Immunoblots against 20 selected proteins: Total cell lysates were prepared with RIPA buffer (Pierce) according to manufacturer's instructions. The protein concentrations were determined by BCA protein assay kit (Thermo scientific). Equal amounts of proteins were resolved on SDS-PAGE and subjected to immunoblotting analysis by using the antibodies listed below. The intensity of protein bands was quantified by using ImageJ software.
Anti-Myosin IIA (M8064) and anti-GFP (11814460001) antibodies were from Sigma and Roche, respectively.

[5] = test system: YFP tagged proteins in H1299 cells; assay: Temporal profiles of total fluorescence and cell-cell variability of YFP tagged proteins in response to drug
Method: as §2
Image analysis of time lapse movies: A custom written image analysis tool was used developed using the Matlab image processing toolbox environment (Mathworks, Natick, Mass.). The main steps include; image correction, segmentation, tracking of the cells and automated identification of cell phenotypes (mitosis and cell death). Image background correction (flat field correction and background subtraction) was carried out as previously described (Sigal, Milo et al. 2006, supra). No significant bleaching was observed (on average less than 3% over the duration of the experiment). […] The main steps of the segmentation process are: 1) Differentiation between cells and background by global image threshold using Otsu's method (Otsu 1979, IEEE Transactions on Systems, Man, and Cybernetics 9(1): 62-66); 2) Segmentation of neighboring cells by applying the seeded watershed segmentation algorithm. […]
Protein dynamics clustering: The five average population dynamics profiles depicted in FIG. 8B were generated in the following manner: The levels of each protein were smoothed using a median filter and linearly scaled between −1 and 1. The distance between every pair of proteins was measured in terms of Pearson correlation and clustering was performed using a k-means algorithm (reproducibility of results using different seeds is >99%). […]

[6] = test system: thyredoxin and thyredoxin reductase; assay: Nuclear/cytoplasmic localization changes of tagged proteins following drug addition
Method: as §2
Image analysis of time lapse movies: A custom written image analysis tool was used developed using the Matlab image processing toolbox environment (Mathworks, Natick, Mass.). […]
Nuclear localization changes following drug addition: The localization of each protein across the experiment was analyzed and the ratio of cytoplasmic to nuclear fluorescence was followed as a function of time. […] Both rapid and slow localization changes between the cytoplasm and the nucleus were detected (FIGS. 14A-C).

[7] = test system: DDX5; assay: Bimodal behavior of tagged DDX5 in individual cells in response to drugs; conditions: Etoposide 33.3 μM, Cis-platinum 40 μM
Method: as §1
Determination of ‘bimodal’ behaviors: The coefficient of variance (CV defined as the ration between the std between cells and the mean) was measured for 400 proteins for 47 hours following addition of CPT (at a 20 minute resolution) (see FIGS. 13A-B). All CVs were normalized to average 1 (CV(i,j)/mean(mean(CV)) where i is protein number (i=1 . . . 400) and j is timepoint (j=1 . . . 141)). All proteins deviating 3 standard deviations from the average normalized CV were considered as ‘bimodal’ candidates (N=59). Following manual inspection, 30 of these proteins listed in Table 4 were denoted as bimodal.

## Cc1c2oc3c(C)ccc(C(=O)N[C@@H]4C(=O)N[C@H](C(C)C)C(=O)N5CCC[C@H]5C(=O)N(C)CC(=O)N(C)[C@@H](C(C)C)C(=O)O[C@@H]4C)c3nc-2c(C(=O)N[C@@H]2C(=O)N[C@H](C(C)C)C(=O)N3CCC[C@H]3C(=O)N(C)CC(=O)N(C)[C@@H](C(C)C)C(=O)O[C@@H]2C)c(N)c1=O [actinomycinD, actinomycin-D] (I: T[dV]P[Sar][NMeV] / II: T[dV]P[Sar][NMeV]; ester I:1-I:C, II:1-II:C; linker I:N-II:N via Actinocin(9to1))
[1]
  proteins with nucleolar dynamics similar to those seen with CPT: 4 out of 5

## CC[C@@]1(O)C(=O)OCc2c1cc1n(c2=O)Cc2cc3ccccc3nc2-1 [CPT, Camptothecin]
[2]
  time to loss of motility and growth arrest after drug addition: about 10 hours
[2]; after 36 hours
  cells showing cell rounding and blebbing (morphological correlates of cell death): about 15%
[3]; CPT
  timescale of decrease of total cellular fluorescence of tagged TOP1: under an hour
[3]; etoposide at equivalently lethal dose, CPT at several doses
  nuclear exit of tagged TOP1: exits from the nucleus to the cytoplasm in a CPT dose dependent manner
[3]; following CPT addition
  timescale of fluorescence accumulation in the cytoplasm in the TOP1 tagged clone: ~5 h
[3]; tagged TOP1, individual cells
  time for TOP1 levels in the nucleoli to drop after drug addition: less than 2 minutes
[4]
  time within which most TOP1 is degraded: ≤ 4 h
[5]; CPT 10 uM
  largest changes in fluorescence: about five
  median dynamic range of response, change in fluorescence: 1.3 fold
[5]; CPT 10 uM, 48 hours tracking
  proteins showing a decrease in intensity in response to the drug: about 70%
[5]; std between cells divided by mean
  increase of cell-cell variability (noise) following drug addition, on average: 30%
[6]; after drug addition
  time to increase in nuclear/cytoplasmic ratio of thyredoxin and thyredoxin reductase: ≤ 8 h
[6]; all tagged proteins, after CPT addition
  proteins showing significant change in nuclear localization (>20% change in cytoplasm/nuclear fluorescence ratio): about 1%

## N.N.[Cl][Pt][Cl] [cisplatin, Cisplatinum]
[3]
  effects on TOP1 (nucleolar exit, degradation, cytoplasmic accumulation): did not show any of these effects on TOP1
[7]
  bimodal behavior of tagged DDX5: did not show bimodal behavior

## COc1cc([C@@H]2c3cc4c(cc3[C@@H](O[C@@H]3O[C@@H]5CO[C@@H](C)O[C@H]5[C@H](O)[C@H]3O)[C@H]3COC(=O)[C@H]23)OCO4)cc(OC)c1O [etoposide, Etoposide]
[3]
  nuclear exit of tagged TOP1: does not occur
  effects on TOP1 (nucleolar exit, degradation, cytoplasmic accumulation): did not show any of these effects on TOP1
[7]
  bimodal behavior of tagged DDX5: did not show bimodal behavior
